We go through 24 compounds from patent US5686486A, “4-hydroxy-benzopyran-2-ones and 4-hydroxy-cycloalkyl[b]pyran-2-ones useful to treat retroviral infections” (priority 1995, dated 1997).

The structures appear in SMILES notation. Several values for one entry are separate records, joined by “and”; a condition that tells them apart may be missing. Equal values may be shown once. Where a name gives a salt, the structure may show the parent alone. Read-outs that look alike come from different tables or passages of the source.

The target in this experiment is HIV-1 protease (Human immunodeficiency virus type 1 group M subtype B, UniProt P04585). The experiment is described as follows: biochemical. Conditions: for IC50: HIV-1 Protease IC50; for inhibition at 1 µM: read-out: HIV-1 Protease % Inhib, dose 1.000 uM; for inhibition at 100 µM: read-out: HIV-1 Protease % Inhib, dose 100.000 uM; for HIV-1 Protease % Inhib: dose 100.000 uM; for inhibition at 0.123 µM: read-out: HIV-1 Protease % Inhib, dose 0.123 uM; for inhibition at 0.37 µM: read-out: HIV-1 Protease % Inhib, dose 0.370 uM. The procedure, abridged: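 Percent inhibition derived from fluorescent cleavage product separated by filtration after streptavidin-bead capture of intact biotin/FITC substrate. Reaction: enzyme (10 μl, 0.1 μM stock) with substrate (20 μl, 0.2 μM stock) and compound, 1 h at room temperature in dark, pH 5.5 acetate buffer with 1.0 M NaCl and 0.05% NP-40.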

Setting [1] is: read-out: HIV-1 Protease % Inhib, dose 10.000 uM.
Where [2] appears, read: dose 1.100 uM, read-out: HIV-1 Protease % Inhib.
The mark [3] stands for this setting: dose 3.300 uM, read-out: HIV-1 Protease % Inhib.
[4] abbreviates: dose 10.000 uM, read-out: HIV-1 Protease % Inhib.
The mark [5] stands for this setting: dose 30.000 uM, read-out: HIV-1 Protease % Inhib.
The mark [6] stands for this setting: read-out: HIV-1 Protease % Inhib, dose 1.100 uM.
[7] abbreviates: read-out: HIV-1 Protease % Inhib, dose 3.300 uM.
Setting [8] is: read-out: HIV-1 Protease % Inhib, dose 30.000 uM.

For the compound `CCC(c1ccccc1)c1c(O)c2ccc(OC(C)C)cc2oc1=O` (stereo not drawn) [Example 81, Coumarin, 3-(α-ethylbenzyl)-4-hydroxy-7-(1-methylethoxy)-], the midpoint of inhibition, the IC50, lay at 3.7 µM; the inhibition at 1 µM worked out at 62%; the inhibition at 100 µM was 85.3%. The inhibition at 10 µM under setting [1] was 75.6%.
For `CCC(c1ccc(F)cc1)c1c(O)c2ccccc2oc1=O` (stereo not drawn) [Example 36, Coumarin, 3-(α-ethyl-p-fluorobenzyl)4-hydroxy-], the inhibition at 1 µM was below 10% and the inhibition at 100 µM amounted to 81.6%. Further, the inhibition at 10 µM under setting [1] worked out at 16.9%.
For `CC(C)(O)C1CCCCCc2c1oc(=O)c(C(c1ccccc1)C1CC1)c2O` (stereo not shown) [Example 175, 3-(Cyclopropylphenylmethyl)-5,6,7,8,9,10-hexahydro-4-hydroxy-10-(1-hydroxy-1-methylethyl)-2H-cycloocta[b]pyran-2-one], under setting [2], the inhibition at 1.1 µM was determined as 19.4%. Also, the inhibition at 3.3 µM under setting [3] stood at 55.5%. The inhibition at 10 µM under setting [4] amounted to 88.5%. Moreover, the inhibition at 30 µM under setting [5] amounted to 105%.
`CCC(c1cccc(NC(=O)CCNC(=O)OC(C)(C)C)c1)c1c(O)c2ccccc2oc1=O` (stereo not shown) [Example 23, 4-Hydroxy-3-[1-[3-[[3-[(1,1-dimethylethoxycarbonyl)amino]-1-oxopropyl]amino]phenyl]propyl]-coumarin]: the IC50 is 0.66 µM and 0.7 µM; the “HIV-1 Protease % Inhib” value came to 104.2%; the inhibition at 1 µM amounted to 46.6%; the inhibition at 100 µM amounted to 104%. In addition, under setting [1], the inhibition at 10 µM stood at 96.6%.
As to `O=c1oc2c(c(O)c1C(c1cccc(NS(=O)(=O)c3cccc4cccnc34)c1)C1CC1)CCCCCC2` (stereo not shown) [Example 263, N-[3-[Cyclopropyl(5,6,7,8,9, 10-hexahydro4-hydroxy-2-oxo-2H-cycloocta[b]pyran-3-yl)methyl]phenyl]-8-quinolinesulfonamide], the inhibition at 0.123 µM came to 82.9% and the inhibition at 0.37 µM turned out to be 89.9%. Besides, the inhibition at 1.1 µM under setting [6] came to 95.7%. Besides, the inhibition at 3.3 µM under setting [7] is 98.7%. In addition, the inhibition at 10 µM under setting [1] was 108%. Besides, the inhibition at 30 µM under setting [8] was determined as 98.3%.
Turning to `CCCC(c1ccc(CC)cc1)c1c(O)c2ccccc2oc1=O` (stereo not shown) [Example 19, 3-(1-(4-Ethylphenyl)-butyl)-4-hydroxycoumarin], the inhibition at 1 µM was below 10%. For the same compound, the inhibition at 10 µM under setting [1] amounted to 36.8%.
On to `O=c1oc2c(c(O)c1C(c1cccc(NCCc3ccccc3)c1)C1CC1)CCCCCC2` (stereo not shown) [Example 243, 3-[Cyclopropyl-[3-[(2-phenylethyl)amino]phenyl]methyl]-5,6,7,8,9, 10-hexahydro-4-hydroxy-2H-cycloocta[b]pyran-2-one], for which the inhibition at 3.3 µM under setting [3] is 24.4%. For the same compound, the inhibition at 10 µM under setting [4] was 44.7%. For the same compound, under setting [5], the inhibition at 30 µM was found to be 54.3%.
As to `O=c1oc2c(c(O)c1C(c1cccc(NS(=O)(=O)c3c(Cl)cc(Cl)cc3Cl)c1)C1CC1)CCCCCC2` (stereo not shown) [Example 306, 2,4,6-Trichloro-N-[3-[cyclopropyl(5,6,7,8,9,10-hexahydro-4-hydroxy-2-oxo-2H-cycloocta[b]pyran-3-yl)methyl]phenyl]-benzenesulfonamide], under setting [2], the inhibition at 1.1 µM was determined as 24.4%. Under setting [3], the inhibition at 3.3 µM is 53.2%. Moreover, the inhibition at 10 µM under setting [4] worked out at 74.5%. For the same compound, the inhibition at 30 µM under setting [5] amounted to 86.2%.
In the case of `O=c1oc2ccccc2c(O)c1C(CC1CCCCC1)c1ccccc1` (stereo not shown) [Example 17, 3-(2-Cyclohexyl-1-phenylethyl)-4-hydroxycoumarin], the inhibition at 1 µM is below 10%. Further, the inhibition at 10 µM under setting [1] was 27.6%.
With `CCC(c1cccc(NC(=O)CC[C@H](N)C(=O)O)c1)c1c(O)c2ccccc2oc1=O` (stereo partly drawn) [Example 52, L-Glutamine, N-[3-[1-(4-hydroxy-2-oxo-2H-1-benzopyran-3-yl)propyl]phenyl]-, mono(trifluoroacetate) (salt)], the midpoint of inhibition, the IC50, lay at 3.1 µM; the inhibition at 1 µM stood at 26.8%; the inhibition at 100 µM is 120%. The inhibition at 10 µM under setting [1] came to 81.5%.
For `CC(C)C(c1ccccc1)c1c(O)c2ccccc2oc1=O` (stereo not shown) [Example 9, 4-Hydroxy-3-(2-methyl-1-phenylpropyl)-coumarin], in that order: 10.6 µM, 12.1%, 98.3% and 65%.
Taken in the same sequence, the figures for `CCC(c1cccc(NC(=O)CCc2cccc3ccccc23)c1)c1c(O)c2ccccc2oc1=O` (stereo not shown) [Example 64, Coumarin, 4-hydroxy-3-[1-[3-[[3-(1-naphthyl)-1-oxopropyl]amino]phenyl]propyl]-] were 5.8 µM, 29.1%, 104% and 78.1%.
In the case of `Cc1ccccc1S(=O)(=O)Nc1cccc(C(c2c(O)c3c(oc2=O)CCCCCC3)C2CC2)c1` (stereo not shown) [Example 330, N-[3-[Cyclopropyl(5,6,7,8,9,10-hexahydro-4-hydroxy-2-oxo-2H-cycloocta[b]pyran-3-yl)methyl]phenyl]-2-methyl-benzenesulfonamide], the inhibition at 0.123 µM was found to be 47.2% and the inhibition at 0.37 µM worked out at 83.8%. In addition, under setting [6], the inhibition at 1.1 µM stood at 106%. Further, the inhibition at 3.3 µM under setting [7] stood at 109%. In addition, the inhibition at 10 µM under setting [1] was found to be 115%. Also, the inhibition at 30 µM under setting [8] amounted to 106%.
Consider `CC(C)C(c1cccc(NS(=O)(=O)c2cccc3cccnc23)c1)c1c(O)c2c(oc1=O)CCCCCC2` (stereo not shown) [Example 416, 8-Quinolinesulfonamide, N-[3-[1-(5,6,7,8,9,10-hexahydro4-hydroxy-2-oxo-2H-cycloocta[b]pyran-3-yl)-2-methylpropyl]phenyl]-], for which the inhibition at 0.123 µM turned out to be 50.9% and the inhibition at 0.37 µM was found to be 88%. Besides, the inhibition at 1.1 µM under setting [6] came to 102%. For the same compound, the inhibition at 3.3 µM under setting [7] was determined as 99.7%. In addition, the inhibition at 10 µM under setting [1] was found to be 98.6%. Also, the inhibition at 30 µM under setting [8] came to 97.8%.
As for `CC(O)CC(c1ccccc1)c1c(O)c2ccccc2oc1=O` (stereo not shown) [Example 8, 4-Hydroxy-3-(3-hydroxy-1-phenylbutyl)-coumarin], inhibition was half-maximal at 41.7 µM (IC50), the inhibition at 1 µM is below 10% and the inhibition at 100 µM is 93.3%. Further, the inhibition at 10 µM under setting [1] is 23.7%.
Consider `CCC(c1cccc(NC(=O)CC(C)(C)NC(=O)OC(C)(C)C)c1)c1c(O)c2ccccc2oc1=O` (stereo not shown) [Example 47, Coumarin, 4-hydroxy-3-[1-[3-[[1-oxo-3-methyl-3-[(1,1-dimethylethoxycarbonyl)amino]butyl]amino]phenyl]propyl]-], for which the inhibition at 1 µM is below 10% and the inhibition at 100 µM came out at 53%. For the same compound, the inhibition at 10 µM under setting [1] is below 10%.
`O=c1oc2c(c(O)c1C(c1ccc(CNS(=O)(=O)c3ccc(F)cc3)s1)C1CC1)CCCCCC2` (stereo not shown) [Example 393]: under setting [3], the inhibition at 3.3 µM worked out at 37.5%. Further, under setting [4], the inhibition at 10 µM worked out at 66.3%. Besides, under setting [5], the inhibition at 30 µM was determined as 89.8%.
Taken in the same sequence, the figures for `N#Cc1ccc(S(=O)(=O)NCc2ccc(C(c3c(O)c4c(oc3=O)CCCCCC4)C3CC3)o2)cc1` (stereo not shown) [Example 391] were 28.3%, 59.1% and 84.2%.
As to `CCC(c1ccccc1)c1c(O)c2ccc(O)cc2oc1=O` (stereo not shown) [Example 93, Coumarin, 4,7-dihydroxy-3-(1-phenylpropyl)-], the 50% inhibitory concentration (IC50) was 20.6 µM, the “HIV-1 Protease % Inhib” value came to 91.7%, the inhibition at 1 µM was found to be 23.2% and the inhibition at 100 µM was 109%. Moreover, the inhibition at 10 µM under setting [1] came out at 79.4%.
Turning to `CCC(c1cccc(NC(=O)CCCCc2ccccc2)c1)c1c(O)c2ccccc2oc1=O` (stereo not shown) [Example 54, Coumarin, 4-hydroxy-3-[1-[3-[(1-oxo-5-phenylpentyl)amino]phenyl]propyl]-], the inhibition at 1 µM was below 10%.
Turning to `O=C(Nc1cccc(C(c2c(O)c3c(oc2=O)CCCCCC3)C2CC2)c1)Oc1ccccc1` (stereo not shown) [Example 225, [3-[Cyclopropyl(5,6,7,8,9,10-hexahydro-4-hydroxy-2-oxo-2H-cycloocta[b]pyran-3-yl)methyl]phenyl]-, phenyl ester carbamic acid], under setting [6], the inhibition at 1.1 µM is 14.9%. Further, under setting [7], the inhibition at 3.3 µM came to 47%. For the same compound, the inhibition at 10 µM under setting [1] stood at 77.2%. Besides, the inhibition at 30 µM under setting [8] was determined as 91.7%.
Take `CCCCC(c1cccc(NS(=O)(=O)c2ccc(F)cc2)c1)c1c(O)c2c(oc1=O)CCCCCC2` (stereo not shown) [Example 422]: the inhibition at 0.123 µM was 100% and the inhibition at 0.37 µM was determined as 95.4%. Besides, the inhibition at 1.1 µM under setting [6] amounted to 96.5%. Besides, under setting [7], the inhibition at 3.3 µM was determined as 103%. Further, under setting [1], the inhibition at 10 µM stood at 97.6%. Besides, the inhibition at 30 µM under setting [8] was found to be 95.2%.
With `O=c1oc2ccccc2c(O)c1C(c1ccccc1)c1ccccc1` [Example 7, 4-Hydroxy-3-diphenylmethylcoumarin], the IC50 was 21.2 µM, the inhibition at 1 µM was below 10% and the inhibition at 100 µM was 96.3%. The inhibition at 10 µM under setting [1] was 42.5%.
As to `CCCCOc1ccc(S(=O)(=O)Nc2cccc(C(c3c(O)c4c(oc3=O)CCCCCC4)C3CC3)c2)cc1` (stereo not shown) [Example 282, 4-Butoxy-N-[3-[cyclopropyl(5,6,7,8,9,10-hexahydro-4-hydroxy-2-oxo-2H-cycloocta[b]pyran-3-yl)methyl]phenyl]-benzenesulfonamide], the inhibition at 1.1 µM under setting [2] is 10.6%. The inhibition at 3.3 µM under setting [3] is 43.2%. The inhibition at 10 µM under setting [4] is 65.3%. In addition, under setting [5], the inhibition at 30 µM was determined as 96.3%.

As a reminder, the IC50 is the concentration at which inhibition is half-maximal. A high value points to lower potency.
